Legend:
[1] = biological target: T1, Collagenase 3 (Homo sapiens, UniProt P45452); assay: Inhibition of matrix metalloprotease-13; conditions: concentration not given here
[2] = biological target: T2, Disintegrin and metalloproteinase domain-containing protein 17 (Homo sapiens, UniProt P78536); assay: In vitro inhibition of TNF-alpha converting enzyme (TACE)
[3] = biological target: T3, Matrix metalloproteinase-9 (Homo sapiens, UniProt P14780); assay: Inhibition of Matrix metalloprotease-9 at 1 uM
T3 sequence (P14780 whole entry): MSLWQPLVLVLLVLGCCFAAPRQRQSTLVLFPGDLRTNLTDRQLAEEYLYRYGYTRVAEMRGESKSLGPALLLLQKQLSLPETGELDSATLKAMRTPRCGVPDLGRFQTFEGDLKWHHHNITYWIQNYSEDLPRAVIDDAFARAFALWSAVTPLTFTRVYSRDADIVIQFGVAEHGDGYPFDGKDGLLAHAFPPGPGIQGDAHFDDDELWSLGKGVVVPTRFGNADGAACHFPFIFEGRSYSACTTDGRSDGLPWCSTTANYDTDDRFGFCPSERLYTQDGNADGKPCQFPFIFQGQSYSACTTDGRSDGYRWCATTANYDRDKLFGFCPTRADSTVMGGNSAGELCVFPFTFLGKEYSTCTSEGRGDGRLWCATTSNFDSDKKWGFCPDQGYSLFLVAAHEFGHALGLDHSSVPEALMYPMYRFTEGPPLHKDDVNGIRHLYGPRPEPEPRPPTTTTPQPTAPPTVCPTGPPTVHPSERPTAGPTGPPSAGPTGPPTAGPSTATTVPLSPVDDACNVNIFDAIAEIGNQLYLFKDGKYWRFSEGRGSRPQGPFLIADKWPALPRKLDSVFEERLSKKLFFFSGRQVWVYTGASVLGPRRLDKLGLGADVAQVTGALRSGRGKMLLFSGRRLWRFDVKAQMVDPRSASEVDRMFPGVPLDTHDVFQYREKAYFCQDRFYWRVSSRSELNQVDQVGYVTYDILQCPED

[4] = biological target: T4, Interstitial collagenase (Homo sapiens) (UniProt P03956); assay: Inhibition of Matrix metalloprotease-1 at 10 uM
T4 sequence (whole entry): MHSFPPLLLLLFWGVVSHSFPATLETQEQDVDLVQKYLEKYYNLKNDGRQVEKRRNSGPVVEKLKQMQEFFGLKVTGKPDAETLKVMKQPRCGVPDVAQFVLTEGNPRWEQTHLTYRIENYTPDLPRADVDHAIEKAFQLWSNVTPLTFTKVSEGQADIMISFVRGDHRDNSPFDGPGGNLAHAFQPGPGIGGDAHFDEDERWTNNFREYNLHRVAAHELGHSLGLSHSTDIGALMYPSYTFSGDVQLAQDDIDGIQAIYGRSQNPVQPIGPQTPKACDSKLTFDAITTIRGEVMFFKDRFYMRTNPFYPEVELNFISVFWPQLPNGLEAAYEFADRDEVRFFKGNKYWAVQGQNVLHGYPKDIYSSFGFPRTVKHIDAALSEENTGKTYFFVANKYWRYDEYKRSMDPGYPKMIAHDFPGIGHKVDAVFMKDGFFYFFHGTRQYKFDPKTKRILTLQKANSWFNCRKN

[5] = biological target: T3, Matrix metalloproteinase-9; assay: In vitro ability to inhibit matrix metalloprotease-9.
[6] = biological target: T1, Collagenase 3
[7] = biological target: T4, Interstitial collagenase (Homo sapiens); assay: Inhibition of Matrix metalloprotease-1 at 1 uM
[8] = biological target: T2, Disintegrin and metalloproteinase domain-containing protein 17; assay: Inhibition of TNF-alpha converting enzyme (TACE) at 1 uM
[9] = biological target: T5, Interstitial collagenase (Homo sapiens, UniProt P03956); assay: In vitro inhibition of Matrix metalloprotease-1
T5 sequence (P03956 whole entry): T4 sequence (whole entry)

[10] = species: Bos taurus; assay: Percent inhibition of cartilage degradation at 1 uM in a bovine articular cartilage explant assay; format: functional; conditions: Cartilage tissue
[11] = system: Rattus norvegicus; assay: Percent inhibition of collagen degradation at an oral dose of 50 mg/kg/bid in an in vivo rat sponge-wrapped cartilage model; format: functional

T2 sequence (P78536 whole entry, the tested form may be a part): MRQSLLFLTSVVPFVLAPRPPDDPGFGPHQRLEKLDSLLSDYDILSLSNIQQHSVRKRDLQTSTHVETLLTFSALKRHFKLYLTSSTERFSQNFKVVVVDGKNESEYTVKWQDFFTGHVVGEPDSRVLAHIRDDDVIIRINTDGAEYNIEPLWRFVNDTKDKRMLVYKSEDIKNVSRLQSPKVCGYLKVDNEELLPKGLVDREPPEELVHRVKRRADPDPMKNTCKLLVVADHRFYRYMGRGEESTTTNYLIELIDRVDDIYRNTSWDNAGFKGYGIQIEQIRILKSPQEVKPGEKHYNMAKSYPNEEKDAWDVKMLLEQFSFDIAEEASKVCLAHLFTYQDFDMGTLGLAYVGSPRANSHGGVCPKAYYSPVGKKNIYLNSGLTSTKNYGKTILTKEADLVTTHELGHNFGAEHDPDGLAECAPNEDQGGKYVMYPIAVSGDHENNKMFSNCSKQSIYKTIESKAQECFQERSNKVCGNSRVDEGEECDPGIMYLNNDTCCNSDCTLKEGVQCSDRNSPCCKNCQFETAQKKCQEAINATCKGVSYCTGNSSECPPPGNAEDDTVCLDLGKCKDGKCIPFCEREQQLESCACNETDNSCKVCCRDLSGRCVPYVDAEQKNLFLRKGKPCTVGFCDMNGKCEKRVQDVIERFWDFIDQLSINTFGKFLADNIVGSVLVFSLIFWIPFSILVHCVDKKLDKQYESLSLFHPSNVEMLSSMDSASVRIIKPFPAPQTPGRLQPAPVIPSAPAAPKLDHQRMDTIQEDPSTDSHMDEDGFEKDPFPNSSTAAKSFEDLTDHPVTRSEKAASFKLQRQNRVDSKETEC

SMILES	IC50 [2]	IC50 [5]	IC50 [6]	IC50 [9]	also measured
Cc1cc(Br)cc(C(=O)NO)c1N(C)S(=O)(=O)c1ccc(-c2ccc(OCc3cccnc3)cc2)cc1	28 nM				inhibition [1]: 48%; inhibition [3]: 28%; inhibition [4]: 42%
Cc1cc(Br)cc(C(=O)NO)c1N(C)S(=O)(=O)c1ccc(-c2ccc(OCc3ccccc3)cc2)cc1	57 nM	189 nM	163 nM		inhibition [4]: 57%
CN(c1ccccc1C(=O)NO)S(=O)(=O)c1ccc(Oc2ccncc2)cc1		153 nM	38 nM		inhibition [7]: 48%; inhibition [8]: 22%
Cc1cccc(C(=O)NO)c1N(Cc1cccnc1)S(=O)(=O)c1ccc(-c2ccc3c(c2)OCO3)cc1					inhibition [8]: 9%; inhibition [3]: 43%; inhibition [4]: 37%
COc1ccc(S(=O)(=O)N(Cc2cccnc2)c2c(C(=O)NO)cc(C)cc2-c2ccco2)cc1		8 nM	1 nM	18 nM	
Cc1cccc(C(=O)NO)c1N(C)S(=O)(=O)c1ccc(Oc2ccncc2)cc1		7 nM			inhibition at 1 µM [10]: 83%; inhibition in vivo at 50 mg/kg [11]: 35%; inhibition [8]: 32%
COc1ccc(S(=O)(=O)N(Cc2cccnc2)c2c(C(=O)NO)cc(C)cc2-c2ccccc2)cc1	133 nM	7 nM	3 nM	103 nM	
CCCCOc1ccc(S(=O)(=O)N(Cc2ccccc2)c2c(C)cc(C)cc2C(=O)NO)cc1					inhibition [7]: 33%
COc1ccc(S(=O)(=O)N(Cc2cccnc2)c2c(C)cc(-c3ccccc3)cc2C(=O)NO)cc1			4 nM		inhibition at 1 µM [10]: 70%
COc1ccc(-c2ccc(S(=O)(=O)N(Cc3cccnc3)c3c(C)cccc3C(=O)NO)cc2)cc1		152 nM	18 nM	2270 nM	inhibition [8]: 4%
COc1ccc(S(=O)(=O)N(Cc2cccnc2)c2c(C)cccc2C(=O)NO)cc1	231 nM				
Cc1cc(C)c(N(C)S(=O)(=O)c2ccc(Sc3ccccc3)cc2)c(C(=O)NO)c1	727 nM	8 nM	3 nM	1310 nM	
Cc1cc(Br)cc(C(=O)NO)c1N(Cc1ccccc1)S(=O)(=O)c1ccc(OCc2ccccc2)cc1	285 nM	3450 nM			inhibition [4]: 18%
Cc1cc(C)c(N(Cc2ccccc2)S(=O)(=O)c2ccc(OCc3ccccc3)cc2)c(C(=O)NO)c1					inhibition [7]: 25%
COc1ccc(S(=O)(=O)N(Cc2cccnc2)[C@@H](C(=O)NO)C(C)C)cc1 [CGS-27023A]	231 nM				inhibition at 1 µM [10]: 70%; inhibition in vivo at 50 mg/kg [11]: 51%
COc1ccc(S(=O)(=O)N(Cc2cccnc2)c2c(C)cc(-c3ccc4ccccc4c3)cc2C(=O)NO)cc1	194 nM	2 nM	1 nM	745 nM	inhibition at 1 µM [10]: 83%
Cc1cc(Br)cc(C(=O)NO)c1N(C)S(=O)(=O)c1ccc(-c2ccc(OCc3nccs3)cc2)cc1	23 nM	952 nM	661 nM		inhibition [4]: 45%
COc1ccc(S(=O)(=O)N(Cc2cccnc2)c2c(C)cc(N(C)C)cc2C(=O)NO)cc1	633 nM	2 nM	39 nM	74 nM	
COc1ccc(S(=O)(=O)N(Cc2cccnc2)c2c(C)cc(-c3cccc(C(F)(F)F)c3)cc2C(=O)NO)cc1		1 nM			
Cc1cc(C)c(N(Cc2ccccc2)S(=O)(=O)c2ccc(Oc3ccccc3)cc2)c(C(=O)NO)c1		4 nM	6 nM	376 nM	inhibition [8]: 37%
Cc1cc(Br)cc(C(=O)NO)c1N(C)S(=O)(=O)c1ccc(Oc2ccc(C(C)(C)C)cc2)cc1		125 nM	44 nM		inhibition [7]: 25%; inhibition [8]: 19%
CCN(CC)Cc1cc(C)c(N(Cc2ccccc2)S(=O)(=O)c2ccc(OC)cc2)c(C(=O)NO)c1					inhibition [8]: 44%
COc1ccc(S(=O)(=O)N(Cc2cccnc2)c2c(C)cc(C)cc2C(=O)NO)cc1	70 nM				
Cc1cc(Br)cc(C(=O)NO)c1N(C)S(=O)(=O)c1ccc(-c2ccc(OCc3ccsc3)cc2)cc1	56 nM	232 nM	142 nM	4640 nM	
COc1ccc(S(=O)(=O)N(Cc2cccnc2)c2c(C)cc(Br)cc2C(=O)NO)cc1	43 nM			124 nM	

Source: ChEMBL document CHEMBL1133916, “The discovery of anthranilic acid-based MMP inhibitors. Part 2: SAR of the 5-position and P1(1) groups” (Bioorg Med Chem Lett, 2001)
